Measured values: ChEMBL document CHEMBL5352423, “Discovery of potent human dihydroorotate dehydrogenase inhibitors based on a benzophenone scaffold” (Eur J Med Chem, 2022)
In brackets after ≈: the same amount, converted by molar mass.

Key:
[1] = Toxicity in BALB/c mouse assessed as increase in albumin to globulin ratio administered at 300 mg/kg, po for 14 days; format: organism-based; conditions: in vivo, 336 h, time 14 day
SUD4 = assay: Antiproliferative activity against human SU-DHL-4 cells incubated for 96 hrs by MTT assay; format: functional, cell-based; conditions: SU-DHL-4, 96 h
[2] = Cytotoxicity against human HL7702 cells incubated for 96 hrs by MTT assay; format: toxicity, cell-based, L02
[3] = Toxicity in BALB/c mouse assessed as change in blood RBC administered at 300 mg/kg, po for 14 days; format: organism-based; conditions: in vivo, 336 h, time 14 day
[4] = Toxicity in BALB/c mouse assessed as change in blood HCT administered at 300 mg/kg, po for 14 days; format: organism-based; conditions: in vivo, 336 h, time 14 day
[5] = molecular target: Voltage-gated inwardly rectifying potassium channel KCNH2 (Homo sapiens, UniProt Q12809); assay: Inhibition of human ERG; format: toxicity
Sequence of Voltage-gated inwardly rectifying potassium channel KCNH2 (Q12809 whole entry): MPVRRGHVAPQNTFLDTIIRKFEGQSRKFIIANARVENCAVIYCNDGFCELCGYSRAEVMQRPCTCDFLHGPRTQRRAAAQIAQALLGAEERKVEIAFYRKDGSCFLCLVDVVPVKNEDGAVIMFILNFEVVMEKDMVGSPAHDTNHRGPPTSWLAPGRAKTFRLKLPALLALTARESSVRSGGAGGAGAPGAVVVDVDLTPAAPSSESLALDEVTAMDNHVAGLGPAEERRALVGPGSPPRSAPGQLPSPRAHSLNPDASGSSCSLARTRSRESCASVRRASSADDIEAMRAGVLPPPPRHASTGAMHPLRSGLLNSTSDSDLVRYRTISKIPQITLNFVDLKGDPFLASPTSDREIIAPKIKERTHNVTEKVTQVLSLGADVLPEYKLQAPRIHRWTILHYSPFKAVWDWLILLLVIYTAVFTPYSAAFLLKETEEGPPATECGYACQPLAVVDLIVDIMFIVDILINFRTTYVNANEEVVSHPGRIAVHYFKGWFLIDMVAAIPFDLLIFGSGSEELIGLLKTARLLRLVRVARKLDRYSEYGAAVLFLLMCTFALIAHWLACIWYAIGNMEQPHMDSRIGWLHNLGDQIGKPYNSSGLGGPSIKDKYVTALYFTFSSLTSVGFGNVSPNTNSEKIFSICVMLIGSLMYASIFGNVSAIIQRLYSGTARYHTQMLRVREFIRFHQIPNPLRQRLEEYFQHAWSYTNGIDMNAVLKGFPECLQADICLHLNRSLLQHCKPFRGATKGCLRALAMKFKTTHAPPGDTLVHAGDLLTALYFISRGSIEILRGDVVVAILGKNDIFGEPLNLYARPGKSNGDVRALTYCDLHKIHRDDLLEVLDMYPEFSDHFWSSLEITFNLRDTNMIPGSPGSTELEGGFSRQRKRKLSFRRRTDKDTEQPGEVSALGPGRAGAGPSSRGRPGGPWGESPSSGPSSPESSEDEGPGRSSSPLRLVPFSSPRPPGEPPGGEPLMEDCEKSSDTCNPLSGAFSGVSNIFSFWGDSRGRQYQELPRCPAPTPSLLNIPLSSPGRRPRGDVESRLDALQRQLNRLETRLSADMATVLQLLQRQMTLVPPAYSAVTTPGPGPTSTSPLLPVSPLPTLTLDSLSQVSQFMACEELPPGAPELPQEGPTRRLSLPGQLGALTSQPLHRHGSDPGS

[6] = Lipophilicity, logP of compound; format: physicochemical; conditions: octanol/water
[7] = Toxicity in BALB/c mouse assessed as change in blood lymphocytes administered at 300 mg/kg, po for 14 days; format: organism-based, Lymphocyte; conditions: in vivo, 336 h, time 14 day
Raji = assay: Antiproliferative activity against human Raji cells incubated for 96 hrs by MTT assay; format: functional, cell-based
A-375 = assay: Antiproliferative activity against human A-375 cells incubated for 96 hrs by MTT assay; format: functional, cell-based; conditions: A-375, 96 h
[8] = Toxicity in BALB/c mouse assessed as change in blood RDW administered at 300 mg/kg, po for 14 days; format: organism-based; conditions: in vivo, 336 h, time 14 day
[9] = Toxicity in BALB/c mouse assessed as change in blood MCH administered at 300 mg/kg, po for 14 days; format: organism-based; conditions: in vivo, 336 h, time 14 day
[10] = Toxicity in BALB/c mouse assessed as histopathological changes in lung administered at 300 mg/kg, po for 14 days; format: organism-based; conditions: in vivo, 336 h, time 14 day
[11] = Toxicity in BALB/c mouse assessed as change in blood PLT administered at 300 mg/kg, po for 14 days; format: organism-based; conditions: in vivo, 336 h, time 14 day
[12] = molecular target: T1, Dihydroorotate dehydrogenase (quinone), mitochondrial (Homo sapiens, UniProt Q02127); assay: Inhibition of human DHODH at 1 uM for 30 mins relative to control
T1 sequence (Q02127 whole entry): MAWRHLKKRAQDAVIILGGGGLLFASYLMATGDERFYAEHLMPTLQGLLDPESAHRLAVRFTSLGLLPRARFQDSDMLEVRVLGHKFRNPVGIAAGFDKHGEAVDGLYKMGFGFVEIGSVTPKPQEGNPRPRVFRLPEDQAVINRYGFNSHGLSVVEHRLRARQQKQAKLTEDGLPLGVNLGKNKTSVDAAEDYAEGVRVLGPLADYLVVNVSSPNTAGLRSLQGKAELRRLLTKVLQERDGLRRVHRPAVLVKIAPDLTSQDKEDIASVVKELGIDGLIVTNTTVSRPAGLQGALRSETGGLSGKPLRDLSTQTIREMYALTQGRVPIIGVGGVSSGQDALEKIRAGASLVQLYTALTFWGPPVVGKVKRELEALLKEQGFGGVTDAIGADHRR

Kasumi 1 = assay: Antiproliferative activity against human Kasumi 1 cells incubated for 96 hrs by MTT assay; format: functional, cell-based; conditions: Kasumi 1, 96 h
[13] = Toxicity in BALB/c mouse assessed as histopathological changes in kidney administered at 300 mg/kg, po for 14 days; format: organism-based; conditions: in vivo, 336 h, time 14 day
HCT-116 = assay: Antiproliferative activity against human HCT-116 cells incubated for 96 hrs by MTT assay; format: functional, cell-based; conditions: HCT-116, 96 h
[14] = Aqueous solubility of compound; format: physicochemical; conditions: buffer
[15] = Toxicity in BALB/c mouse assessed as change in blood MPV administered at 300 mg/kg, po for 14 days; format: organism-based; conditions: in vivo, 336 h, time 14 day
[16] = Toxicity in BALB/c mouse assessed as change in blood WBC administered at 300 mg/kg, po for 14 days; format: organism-based; conditions: in vivo, 336 h, time 14 day
KG-1 = assay: Antiproliferative activity against human KG-1 cells incubated for 96 hrs by MTT assay; format: functional, cell-based; conditions: KG-1, 96 h
[17] = Toxicity in BALB/c mouse assessed as change in blood MCV administered at 300 mg/kg, po for 14 days; format: organism-based; conditions: in vivo, 336 h, time 14 day
[18] = Selectivity index ratio of IC50 for human HL7702 cells to IC50 for human Raji cells; format: toxicity; conditions: HL7702 cells and Raji cells, read-out: Ratio IC50
[19] = Toxicity in BALB/c mouse assessed as change in blood MCHC administered at 300 mg/kg, po for 14 days; format: organism-based; conditions: in vivo, 336 h, time 14 day
[20] = Cytotoxicity against human HCoEpiC cells incubated for 96 hrs by MTT assay; format: toxicity, cell-based
[21] = molecular target: T1, Dihydroorotate dehydrogenase (quinone), mitochondrial; assay: Inhibition of human DHODH at 100 nM for 30 mins relative to control
[22] = Toxicity in BALB/c mouse assessed as histopathological changes in spleen administered at 300 mg/kg, po for 14 days; format: organism-based; conditions: in vivo, 336 h, time 14 day
[23] = Cytotoxicity against human NCM460 cells incubated for 96 hrs by MTT assay; format: toxicity, cell-based
[24] = Toxicity in BALB/c mouse assessed as histopathological changes in liver administered at 300 mg/kg, po for 14 days; format: organism-based; conditions: in vivo, 336 h, time 14 day
[25] = molecular target: T1, Dihydroorotate dehydrogenase (quinone), mitochondrial; assay: Inhibition of human DHODH incubated for 30 mins
U-937 = assay: Antiproliferative activity against human U-937 cells incubated for 96 hrs by MTT assay; format: functional, cell-based; conditions: U-937, 96 h
[26] = Toxicity in BALB/c mouse assessed as change in blood neutrophil administered at 300 mg/kg, po for 14 days; format: organism-based; conditions: in vivo, 336 h, time 14 day
[27] = Toxicity in BALB/c mouse assessed as induction of liver inflammation administered at 300 mg/kg, po for 14 days; format: organism-based; conditions: in vivo, 336 h, time 14 day
[28] = Toxicity in BALB/c mouse assessed as change in blood HGB administered at 300 mg/kg, po for 14 days; format: organism-based; conditions: in vivo, 336 h, time 14 day

What does the source list for `C/C(O)=C(\C#N)C(=O)Nc1cc(O[C@@H](C)C(F)(F)F)c(C(=O)c2ccccc2F)cc1F`?
Activity [1]: Toxic; IC50 (SUD4): 1650 nM; IC50 at 96 h [2]: 2100 nM; Activity [3]: Non-Toxic; Activity [4]: Non-Toxic; IC50 [5]: > 100000 nM; logP [6]: 2.16; Activity [7]: Non-Toxic; IC50 (Raji): 100 nM; IC50 (A-375): 950 nM; Activity [8]: Non-Toxic; Activity [9]: Non-Toxic; Activity [10]: Non-Toxic; Activity [11]: Non-Toxic; inhibition [12]: 96.9%; IC50 (Kasumi 1): 410 nM; Activity [13]: Non-Toxic; IC50 (HCT-116): 640 nM; solubility [14]: 109 µg/mL (≈ 241 µM); Activity [15]: Non-Toxic; Activity [16]: Non-Toxic; IC50 (KG-1): 530 nM; Activity [17]: Non-Toxic; selectivity ratio [18]: 21; Activity [19]: Non-Toxic; IC50 at 96 h [20]: 60500 nM; inhibition [21]: 79.1%; Activity [22]: Non-Toxic; IC50 at 96 h [23]: > 10000 nM; Activity [24]: Toxic; IC50 [25]: 23.9 nM; IC50 (U-937): 520 nM; Activity [26]: Non-Toxic; Activity [27]: Toxic; Activity [28]: Non-Toxic
